Marks after values point to notes of the source that are not given here.
Key:
[1] = test system: Escherichia coli; assay: Colony number in TSO samples at pH 4 with preservatives; type: cell-based; conditions: 10 000 TSO/ml in phosphate buffer pH 4, 25° C.; for T 1d: 1 day; for T 7d: 7 days
Procedure: (§1) Raising the pH from pH 2 to pH 4 and addition of preservatives Experimental conditions for examples 4a to 4e: […] The following microorganisms were added to the test samples: • Aspergillus niger in the form of an individual microorganism • Pseudomonas aruginosa, Staphylococcus aureus, Candida albicans and Escherichia coli in combination. The incubation temperature was 25° C. The test plates were evaluated after 1 to 7 days.

[2] = test system: Candida albicans; assay: as above; type: cell-based; conditions: 10 000 TSO/ml in phosphate buffer pH 4, 25° C.; for T 1d: 1 day; for T 7d: 7 days
Procedure: as §1

[3] = test system: Staphylococcus aureus; assay: as above; type: cell-based; conditions: 10 000 TSO/ml in phosphate buffer pH 4, 25° C.; for T 1d: 1 day; for T 7d: 7 days
Procedure: as §1

[4] = test system: Aspergillus niger; assay: as above; type: cell-based; conditions: 10 000 TSO/ml in phosphate buffer pH 4, 25° C.; for T 1d: 1 day; for T 7d: 7 days
Procedure: as §1

[5] = test system: Psuedomonas aeruginosa; assay: as above; type: cell-based; conditions: 10 000 TSO/ml in phosphate buffer pH 4, 25° C.; for T 1d: 1 day; for T 7d: 7 days
Procedure: as §1

[6] = test system: Candida albicans; assay: Microbial count after H2SO4 treatment of inoculated nutrient suspension (test yeasts); type: cell-based
[7] = test system: porcine parvovirus (PPV); type: cell-based; conditions: pH 2, 30° C., with TSO; after 3 h
[8] = test system: feline calicivirus (FCV); type: cell-based; conditions: pH 2, 30° C., with TSO; after 3 h
[9] = test system: Aspergillus niger; assay: Microbial count after H2SO4 treatment of inoculated nutrient suspension (test molds); type: cell-based
[10] = test system: Salmonella typhymurium; assay: Microbial count after H2SO4 treatment of inoculated nutrient suspension (test bacteria); conditions: pH 2, 6 h at 30° C.
[11] = test system: Escherichia coli; assay: as above; conditions: pH 2, 6 h at 30° C.
[12] = test system: Penicillium brevicomp.; assay: Microbial count after H2SO4 treatment of inoculated nutrient suspension (test molds); type: cell-based
[13] = test system: murine leukemia virus (MuLV); type: cell-based; conditions: pH 2, 30° C., with TSO; after 10 min
[14] = test system: Clostridium sporog.; assay: Microbial count after H2SO4 treatment of inoculated nutrient suspension (test bacteria); type: cell-based; conditions: pH 2, 6 h at 30° C.
[15] = test system: pseudorabies virus (PRV); type: cell-based; conditions: pH 2, 30° C., with TSO; after 10 min
[16] = test system: Bacillus subtilis; assay: Microbial count after H2SO4 treatment of inoculated nutrient suspension (test bacteria); conditions: pH 2, 6 h at 30° C.
[17] = test system: microorganisms in Trichuris suis egg suspension (TSO); assay: Depletion of microorganisms in a T. suis egg suspension (microbial count per DAB 2.6.12); type: cell-based; conditions: TSO 2400 eggs/ml rebuffered to pH 2; after storage for 3 h at 30° C.
Procedure: The microbial count in a Trichuris suis egg suspension (TSO) in phosphate buffer (pH 7) at a concentration of 2400 eggs/ml was determined as specified in the DAB (German Pharmacopoeia, section 2.6.12, last updated with the 24th Supplement in 2006). […] This suspension was then rebuffered to pH 2 in dilute H2SO4 solution.

[18] = test system: Staphylococus aureus; assay: Microbial count after H2SO4 treatment of inoculated nutrient suspension (test bacteria); conditions: pH 2, 6 h at 30° C.
[19] = test system: Saccharomyces cer.; assay: Microbial count after H2SO4 treatment of inoculated nutrient suspension (test yeasts); type: cell-based
[20] = test system: indicator cells

O=C(O)c1ccccc1 [Benzoic acid 0.2%, Benzoic acid]
T 1d [1]: <10 cfu/ml
T 7d [1]: <10 cfu/ml
T 0 [1]: 140 000 cfu/ml
T 1d [2]: <10 cfu/ml
T 7d [2]: <10 cfu/ml
T 0 [2]: 240 000 cfu/ml
T 1d [3]: <10 cfu/ml
T 7d [3]: <10 cfu/ml
T 0 [3]: 130 000 cfu/ml
T 1d [4]: 90 cfu/ml
T 7d [4]: <10 cfu/ml
T 0 [4]: 120 000 cEu/ml
T 1d [5]: <10 cfu/ml
T 7d [5]: <10 cfu/ml
T 0 [5]: 180 000 cfu/ml

O=S(=O)(O)O [H2SO4 pH 2, H2SO4]
microbial count T3h H2SO4 pH 2 ([6]; pH 2, 3 h at 25° C.): 380 000 cfu
microbial count T48h H2SO4 pH 2 ([6]; pH 2, 48 h at 25° C.): 32 000 cfu
viral activity [7]: no longer infectious
viral activity [8]: no longer infectious
microbial count T3h H2SO4 pH 2 ([9]; pH 2, 3 h at 25° C.): 370 000 cfu
microbial count T48h H2SO4 pH 2 ([9]; pH 2, 48 h at 25° C.): 700 000 cfu
microbial count, H2SO4 pH 2 after 6 h [10]: <10 colony-forming units
microbial count, H2SO4 pH 2 after 6 h [11]: <10 colony-forming units
microbial count T3h H2SO4 pH 2 ([12]; pH 2, 3 h at 25° C.): 90 000 cfu
microbial count T48h H2SO4 pH 2 ([12]; pH 2, 48 h at 25° C.): 32 000 cfu
viral activity [13]: no longer infectious
microbial count, H2SO4 pH 2 after 6 h [14]: <10 colony-forming units
viral activity [15]: no longer infectious
microbial count, H2SO4 pH 2 after 6 h [16]: 20* colony-forming units
microbial count [17]: < 20 cfu/ml
microbial count, H2SO4 pH 2 after 6 h [18]: <10 colony-forming units
microbial count T3h H2SO4 pH 2 ([19]; pH 2, 3 h at 25° C.): 380 000 cfu
microbial count T48h H2SO4 pH 2 ([19]; pH 2, 48 h at 25° C.): 220 000 cfu

O=S(=O)(O)O [H2SO1 pH 0, H2SO4]
microbial count T3h H2SO1 pH 0 ([9]; pH 0, 3 h at 25° C.): 50 cfu
microbial count T48h H2SO1 pH 0 ([9]; pH 0, 48 h at 25° C.): <10 cfu
microbial count T3h H2SO1 pH 0 ([12]; pH 0, 3 h at 25° C.): 70 cfu
microbial count T48h H2SO1 pH 0 ([12]; pH 0, 48 h at 25° C.): <10 cfu

C/C=C/C=C/C(=O)O [Sorbic acid 0.1%, Sorbic acid]
T 1d [1]: 490 cfu/ml
T 7d [1]: <10 cfu/ml
T 0 [1]: 140 000 cfu/ml
T 1d [2]: 190 cfu/ml
T 7d [2]: <10 cfu/ml
T 0 [2]: 240 000 cfu/ml
T 1d [3]: 240 cfu/ml
T 7d [3]: <10 cfu/ml
T 0 [3]: 130 000 cfu/ml
T 1d [4]: 20 000 cfu/ml
T 7d [4]: <10 cfu/ml
T 0 [4]: 120 000 cEu/ml
T 1d [5]: 30 cfu/ml
T 7d [5]: <10 cfu/ml
T 0 [5]: 180 000 cfu/ml

[K+].[K+].[O]=[Cr](=[O])([O-])[O][Cr](=[O])(=[O])[O-] [potassium dichromate]
cytotoxicity [20]: cytotoxicity

O=S(=O)(O)O [H2SO4 pH 1, H2SO4]
microbial count T3h H2SO4 pH 1 ([6]; pH 1, 3 h at 25° C.): 26 000 cfu
microbial count T48h H2SO4 pH 1 ([6]; pH 1, 48 h at 25° C.): <10 cfu
microbial count T3h H2SO4 pH 1 ([9]; pH 1, 3 h at 25° C.): 500 000 cfu
microbial count T48h H2SO4 pH 1 ([9]; pH 1, 48 h at 25° C.): 500 000 cfu
microbial count T3h H2SO4 pH 1 ([12]; pH 1, 3 h at 25° C.): 39 000 cfu
microbial count T48h H2SO4 pH 1 ([12]; pH 1, 48 h at 25° C.): 14 000 cfu
microbial count T3h H2SO4 pH 1 ([19]; pH 1, 3 h at 25° C.): 39 000 cfu
microbial count T48h H2SO4 pH 1 ([19]; pH 1, 48 h at 25° C.): 40* cfu

CC(O)CO (stereo not shown) [Propylene glycol 15%, Propylene glycol]
T 1d [1]: 7100 cfu/ml
T 7d [1]: <10 cfu/ml
T 0 [1]: 140 000 cfu/ml
T 1d [2]: 8600 cfu/ml
T 7d [2]: 30 cfu/ml
T 0 [2]: 240 000 cfu/ml
T 1d [3]: 14 000 cfu/ml
T 7d [3]: <10 cfu/ml
T 0 [3]: 130 000 cfu/ml
T 1d [4]: 30 000 cfu/ml
T 7d [4]: 9000 cfu/ml
T 0 [4]: 120 000 cEu/ml
T 1d [5]: 10 cfu/ml
T 7d [5]: <10 cfu/ml
T 0 [5]: 180 000 cfu/ml
